Active and inactive are the calls of the source.
Tests used:
[1] = target: T1, Dual specificity mitogen-activated protein kinase kinase 4 (Homo sapiens, UniProt P45985)
T1 sequence (P45985 whole entry): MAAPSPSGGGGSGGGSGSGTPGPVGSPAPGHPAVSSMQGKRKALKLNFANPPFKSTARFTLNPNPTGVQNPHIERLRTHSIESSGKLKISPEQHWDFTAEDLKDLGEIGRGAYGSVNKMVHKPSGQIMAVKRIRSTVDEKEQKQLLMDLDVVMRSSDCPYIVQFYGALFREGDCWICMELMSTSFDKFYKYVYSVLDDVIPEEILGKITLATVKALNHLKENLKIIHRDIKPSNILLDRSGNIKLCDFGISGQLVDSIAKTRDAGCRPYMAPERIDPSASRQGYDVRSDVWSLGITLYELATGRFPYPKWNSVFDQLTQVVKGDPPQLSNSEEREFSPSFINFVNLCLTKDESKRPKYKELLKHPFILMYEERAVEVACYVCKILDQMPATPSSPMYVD

[2] = target: Mitogen-activated protein kinase 14 (Homo sapiens, UniProt Q16539)
[3] = target: Cyclin-dependent kinase 10 (Homo sapiens, UniProt Q15131)
[4] = target: Phosphatidylethanolamine-binding protein 1 (Homo sapiens, UniProt P30086)
[5] = target: Serine/threonine-protein kinase PLK1 (Homo sapiens, UniProt P53350)
[6] = target: Tyrosine-protein kinase Lck (Homo sapiens, UniProt P06239)
[7] = target: Proto-oncogene tyrosine-protein kinase receptor Ret (Homo sapiens, UniProt P07949)
[8] = target: Tyrosine-protein kinase Fgr (Homo sapiens, UniProt P09769)
[9] = target: T2, Protein kinase C zeta type (Homo sapiens, UniProt Q05513)
T2 sequence (Q05513 whole entry): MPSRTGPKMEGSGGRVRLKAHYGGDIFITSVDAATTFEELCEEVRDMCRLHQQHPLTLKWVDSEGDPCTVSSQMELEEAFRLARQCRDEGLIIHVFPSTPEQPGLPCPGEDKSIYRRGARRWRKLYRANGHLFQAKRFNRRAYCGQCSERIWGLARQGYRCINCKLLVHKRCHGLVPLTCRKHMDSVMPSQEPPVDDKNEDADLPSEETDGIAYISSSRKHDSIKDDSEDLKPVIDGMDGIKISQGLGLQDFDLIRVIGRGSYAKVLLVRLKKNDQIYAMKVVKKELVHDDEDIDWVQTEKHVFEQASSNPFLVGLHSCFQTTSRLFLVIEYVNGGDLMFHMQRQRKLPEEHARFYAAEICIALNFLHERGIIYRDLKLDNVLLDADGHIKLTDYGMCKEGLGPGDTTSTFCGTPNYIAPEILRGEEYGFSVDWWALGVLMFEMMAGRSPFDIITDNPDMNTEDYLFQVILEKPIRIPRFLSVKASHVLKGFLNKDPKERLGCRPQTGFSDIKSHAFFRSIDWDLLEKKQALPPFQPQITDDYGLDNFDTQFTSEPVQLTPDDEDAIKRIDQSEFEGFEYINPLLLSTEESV

[10] = target: T3, Cyclin-dependent kinase-like 5 (Homo sapiens, UniProt O76039)
T3 sequence (O76039 whole entry): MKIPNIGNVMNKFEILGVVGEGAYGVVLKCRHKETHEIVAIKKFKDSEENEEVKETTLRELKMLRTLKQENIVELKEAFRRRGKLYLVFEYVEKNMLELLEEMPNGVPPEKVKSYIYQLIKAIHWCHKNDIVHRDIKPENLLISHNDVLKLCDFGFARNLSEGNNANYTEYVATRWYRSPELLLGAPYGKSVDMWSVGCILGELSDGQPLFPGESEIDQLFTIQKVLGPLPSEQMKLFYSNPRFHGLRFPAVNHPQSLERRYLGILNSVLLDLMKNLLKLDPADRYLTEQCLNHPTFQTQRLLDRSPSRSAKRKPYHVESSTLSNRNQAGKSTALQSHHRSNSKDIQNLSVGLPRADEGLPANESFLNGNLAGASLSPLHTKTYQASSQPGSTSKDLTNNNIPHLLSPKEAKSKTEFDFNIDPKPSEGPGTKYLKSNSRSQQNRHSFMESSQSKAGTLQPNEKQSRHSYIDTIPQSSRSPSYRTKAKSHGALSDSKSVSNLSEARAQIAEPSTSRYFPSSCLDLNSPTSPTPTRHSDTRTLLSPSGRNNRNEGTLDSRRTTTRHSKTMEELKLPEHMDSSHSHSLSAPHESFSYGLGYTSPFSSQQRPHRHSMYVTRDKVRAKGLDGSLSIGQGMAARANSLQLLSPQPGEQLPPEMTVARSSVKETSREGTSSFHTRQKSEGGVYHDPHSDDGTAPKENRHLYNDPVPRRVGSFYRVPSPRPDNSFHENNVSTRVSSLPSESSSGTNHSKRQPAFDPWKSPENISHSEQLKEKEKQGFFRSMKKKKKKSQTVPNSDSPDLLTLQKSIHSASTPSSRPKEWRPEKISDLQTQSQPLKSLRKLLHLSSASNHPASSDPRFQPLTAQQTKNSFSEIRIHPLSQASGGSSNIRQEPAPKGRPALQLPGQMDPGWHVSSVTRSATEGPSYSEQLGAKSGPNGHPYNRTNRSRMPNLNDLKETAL

[11] = target: Serine/threonine-protein kinase pim-2 (Homo sapiens, UniProt Q9P1W9)
Also: in the data inactive means no Kd found up to 30 µM.

Serine/threonine-protein kinase pim-2, sequence (Q9P1W9 whole entry): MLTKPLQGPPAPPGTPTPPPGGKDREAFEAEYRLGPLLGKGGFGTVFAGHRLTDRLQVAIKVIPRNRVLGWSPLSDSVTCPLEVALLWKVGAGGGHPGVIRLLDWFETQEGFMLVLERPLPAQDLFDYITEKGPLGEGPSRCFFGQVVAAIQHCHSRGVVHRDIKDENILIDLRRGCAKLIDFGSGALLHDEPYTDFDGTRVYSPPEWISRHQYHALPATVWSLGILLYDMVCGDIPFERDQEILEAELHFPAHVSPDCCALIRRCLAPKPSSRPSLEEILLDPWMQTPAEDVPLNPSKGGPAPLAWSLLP
Tyrosine-protein kinase Lck, sequence (P06239 whole entry): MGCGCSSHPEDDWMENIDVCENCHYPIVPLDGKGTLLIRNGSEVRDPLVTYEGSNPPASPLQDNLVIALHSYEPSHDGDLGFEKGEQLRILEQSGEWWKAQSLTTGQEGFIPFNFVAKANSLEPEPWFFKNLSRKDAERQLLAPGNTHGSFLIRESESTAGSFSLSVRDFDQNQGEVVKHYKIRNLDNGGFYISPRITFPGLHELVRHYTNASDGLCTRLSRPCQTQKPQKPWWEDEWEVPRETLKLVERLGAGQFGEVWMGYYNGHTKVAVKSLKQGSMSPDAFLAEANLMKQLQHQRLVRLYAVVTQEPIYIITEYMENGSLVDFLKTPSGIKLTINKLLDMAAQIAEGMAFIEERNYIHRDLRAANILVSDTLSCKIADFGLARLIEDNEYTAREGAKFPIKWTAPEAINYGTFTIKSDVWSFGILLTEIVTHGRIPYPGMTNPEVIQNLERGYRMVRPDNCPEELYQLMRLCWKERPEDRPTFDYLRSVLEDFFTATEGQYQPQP
Proto-oncogene tyrosine-protein kinase receptor Ret, sequence (P07949 whole entry): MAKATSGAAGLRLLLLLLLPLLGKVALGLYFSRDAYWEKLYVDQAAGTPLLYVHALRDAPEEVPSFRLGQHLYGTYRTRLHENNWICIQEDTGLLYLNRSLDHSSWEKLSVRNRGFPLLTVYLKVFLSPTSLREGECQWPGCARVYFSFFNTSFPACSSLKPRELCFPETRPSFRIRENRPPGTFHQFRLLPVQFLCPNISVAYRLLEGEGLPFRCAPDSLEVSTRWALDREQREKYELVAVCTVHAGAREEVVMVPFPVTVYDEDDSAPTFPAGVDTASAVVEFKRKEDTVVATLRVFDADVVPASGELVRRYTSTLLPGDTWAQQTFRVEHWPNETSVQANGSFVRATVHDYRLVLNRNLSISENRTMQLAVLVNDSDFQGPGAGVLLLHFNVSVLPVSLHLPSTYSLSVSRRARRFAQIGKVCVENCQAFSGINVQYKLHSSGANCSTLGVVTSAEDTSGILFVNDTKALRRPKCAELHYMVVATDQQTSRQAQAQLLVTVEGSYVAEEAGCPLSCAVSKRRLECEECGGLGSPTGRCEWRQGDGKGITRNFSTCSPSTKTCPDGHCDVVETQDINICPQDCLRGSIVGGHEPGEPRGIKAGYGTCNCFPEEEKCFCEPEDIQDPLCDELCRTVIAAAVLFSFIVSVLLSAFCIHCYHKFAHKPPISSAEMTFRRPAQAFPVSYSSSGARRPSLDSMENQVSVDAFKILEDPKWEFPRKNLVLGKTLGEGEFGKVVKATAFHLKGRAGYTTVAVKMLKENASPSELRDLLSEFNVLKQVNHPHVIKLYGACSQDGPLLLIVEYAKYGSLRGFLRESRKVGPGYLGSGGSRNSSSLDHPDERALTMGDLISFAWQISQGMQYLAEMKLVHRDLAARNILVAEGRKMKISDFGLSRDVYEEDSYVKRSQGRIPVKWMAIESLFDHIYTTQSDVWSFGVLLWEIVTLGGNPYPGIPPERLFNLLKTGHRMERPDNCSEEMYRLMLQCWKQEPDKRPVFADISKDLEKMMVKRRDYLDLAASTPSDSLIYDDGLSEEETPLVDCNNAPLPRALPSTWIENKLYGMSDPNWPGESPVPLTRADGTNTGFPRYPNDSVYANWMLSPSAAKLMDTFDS
Serine/threonine-protein kinase PLK1, sequence (P53350 whole entry): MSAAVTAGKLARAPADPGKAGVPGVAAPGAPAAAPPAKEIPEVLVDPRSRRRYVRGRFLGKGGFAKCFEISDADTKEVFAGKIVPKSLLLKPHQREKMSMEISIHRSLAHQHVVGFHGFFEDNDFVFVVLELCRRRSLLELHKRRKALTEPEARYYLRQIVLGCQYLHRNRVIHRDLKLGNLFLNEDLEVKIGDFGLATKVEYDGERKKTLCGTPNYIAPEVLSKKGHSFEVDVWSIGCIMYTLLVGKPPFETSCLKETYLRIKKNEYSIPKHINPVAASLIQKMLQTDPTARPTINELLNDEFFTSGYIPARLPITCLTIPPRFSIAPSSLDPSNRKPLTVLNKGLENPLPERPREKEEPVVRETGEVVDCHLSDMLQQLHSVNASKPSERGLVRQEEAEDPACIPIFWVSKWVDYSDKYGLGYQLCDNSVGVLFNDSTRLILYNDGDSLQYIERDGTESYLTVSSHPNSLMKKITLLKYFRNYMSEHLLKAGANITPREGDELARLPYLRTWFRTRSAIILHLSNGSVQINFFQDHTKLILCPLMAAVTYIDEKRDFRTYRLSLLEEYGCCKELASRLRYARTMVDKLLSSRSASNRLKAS
Cyclin-dependent kinase 10, sequence (Q15131 whole entry): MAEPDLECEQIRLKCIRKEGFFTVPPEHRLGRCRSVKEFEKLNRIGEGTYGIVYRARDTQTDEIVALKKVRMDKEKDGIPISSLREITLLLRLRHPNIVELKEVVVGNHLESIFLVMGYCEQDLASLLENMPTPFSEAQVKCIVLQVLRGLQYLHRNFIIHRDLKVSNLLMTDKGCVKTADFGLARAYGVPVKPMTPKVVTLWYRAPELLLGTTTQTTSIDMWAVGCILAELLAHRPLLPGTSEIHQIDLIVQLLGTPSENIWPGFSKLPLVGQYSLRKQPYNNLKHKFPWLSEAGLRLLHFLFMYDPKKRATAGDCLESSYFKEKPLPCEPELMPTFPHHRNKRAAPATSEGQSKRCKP
Phosphatidylethanolamine-binding protein 1, sequence (P30086 whole entry): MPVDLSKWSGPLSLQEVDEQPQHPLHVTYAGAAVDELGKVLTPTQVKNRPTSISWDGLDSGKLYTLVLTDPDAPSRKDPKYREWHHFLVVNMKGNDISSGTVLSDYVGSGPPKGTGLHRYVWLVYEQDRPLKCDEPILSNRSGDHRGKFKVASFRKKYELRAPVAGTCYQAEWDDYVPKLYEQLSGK
Mitogen-activated protein kinase 14, sequence (Q16539 whole entry): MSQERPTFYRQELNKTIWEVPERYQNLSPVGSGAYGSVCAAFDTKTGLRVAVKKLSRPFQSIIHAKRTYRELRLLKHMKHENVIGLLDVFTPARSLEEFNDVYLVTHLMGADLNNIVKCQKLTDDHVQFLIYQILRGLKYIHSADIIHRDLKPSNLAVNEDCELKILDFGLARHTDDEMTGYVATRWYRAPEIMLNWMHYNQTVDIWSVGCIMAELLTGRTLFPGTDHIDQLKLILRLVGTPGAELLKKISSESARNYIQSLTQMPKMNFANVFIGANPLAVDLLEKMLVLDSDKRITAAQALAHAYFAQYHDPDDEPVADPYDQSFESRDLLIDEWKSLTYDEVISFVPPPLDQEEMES
Tyrosine-protein kinase Fgr, sequence (P09769 whole entry): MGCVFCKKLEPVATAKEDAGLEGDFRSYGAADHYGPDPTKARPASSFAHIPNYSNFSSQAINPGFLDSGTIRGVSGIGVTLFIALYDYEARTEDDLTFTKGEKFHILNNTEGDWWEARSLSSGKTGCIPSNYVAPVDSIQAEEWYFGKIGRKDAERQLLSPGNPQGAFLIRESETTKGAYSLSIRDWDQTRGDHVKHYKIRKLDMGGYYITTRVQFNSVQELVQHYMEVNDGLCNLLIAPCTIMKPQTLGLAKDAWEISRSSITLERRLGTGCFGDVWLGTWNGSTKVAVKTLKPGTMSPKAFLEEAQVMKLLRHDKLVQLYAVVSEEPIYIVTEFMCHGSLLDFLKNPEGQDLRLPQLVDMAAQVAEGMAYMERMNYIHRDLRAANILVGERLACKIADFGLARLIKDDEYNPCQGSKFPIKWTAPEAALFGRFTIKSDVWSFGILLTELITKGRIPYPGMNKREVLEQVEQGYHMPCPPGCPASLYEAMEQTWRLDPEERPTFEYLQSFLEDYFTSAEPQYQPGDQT

Row | Kd [1] | Kd [2] | Kd [3] | Kd [4] | Kd [5] | Kd [6] | Kd [7] | Kd [9] | Kd [10] | Kd [11] | SMILES | Kd [8]
1 | > 30 µM (inactive) | > 30 µM (inactive) | > 30 µM (inactive) | > 30 µM (inactive) | > 30 µM (inactive) | > 30 µM (inactive) | > 30 µM (inactive) | – | – | – | S=C(NCc1ccc2c(c1)OCO2)N1CCN(c2ncnc3c2oc2ccccc23)CC1 [AMUVATINIB] | –
2 | > 30 µM (inactive) | > 30 µM (inactive) | > 30 µM (inactive) | > 30 µM (inactive) | > 30 µM (inactive) | > 30 µM (inactive) | 0.238 µM (active) | > 30 µM (inactive) | > 30 µM (inactive) | > 30 µM (inactive) | Cc1cc(Nc2nc(N[C@@H](C)c3ncc(F)cn3)ncc2Cl)n[nH]1 [AZD-1480] | –
3 | > 30 µM (inactive) | > 30 µM (inactive) | – | > 30 µM (inactive) | – | 0.514 µM (active) | 0.034 µM (active) | > 30 µM (inactive) | > 30 µM (inactive) | – | COc1cccc(Nc2ncnn3ccc(CN4CC[C@@H](N)[C@H](O)C4)c23)c1 [BMS-690514] | –
4 | > 30 µM (inactive) | > 30 µM (inactive) | – | > 30 µM (inactive) | – | > 30 µM (inactive) | > 30 µM (inactive) | – | > 30 µM (inactive) | > 30 µM (inactive) | COc1cc2ncnc(Nc3ccc(F)c(Cl)c3)c2cc1NC(=O)/C=C/CN1CCCCC1 [DACOMITINIB ANHYDROUS] | –
5 | > 30 µM (inactive) | > 30 µM (inactive) | – | > 30 µM (inactive) | > 30 µM (inactive) | > 30 µM (inactive) | 1.15 µM (active) | > 30 µM (inactive) | > 30 µM (inactive) | – | COc1cc(Nc2ncc(F)c(Nc3ccc4c(n3)N(COP(=O)(O)O)C(=O)C(C)(C)O4)n2)cc(OC)c1OC [FOSTAMATINIB] | –
6 | > 30 µM (inactive) | – | > 30 µM (inactive) | > 30 µM (inactive) | – | – | > 30 µM (inactive) | > 30 µM (inactive) | > 30 µM (inactive) | > 30 µM (inactive) | O=S(=O)(c1cccc2c(O)nccc12)N1CCCNCC1 [HYDROXYFASUDIL] | –
7 | > 30 µM (inactive) | > 30 µM (inactive) | > 30 µM (inactive) | > 30 µM (inactive) | > 30 µM (inactive) | > 30 µM (inactive) | 1.38 µM (active) | – | – | > 30 µM (inactive) | Cc1ccc(C(=O)Nc2ccc(Oc3cc4cnn(C)c4cc3-c3cn[nH]c3)c(F)c2)c(=O)n1-c1ccc(F)cc1 [MERESTINIB] | –
8 | – | – | > 30 µM (inactive) | > 30 µM (inactive) | – | – | – | > 30 µM (inactive) | – | – | CC1(C)CNc2cc(NC(=O)c3cccnc3NCc3ccncc3)ccc21 [MOTESANIB] | –
9 | > 30 µM (inactive) | > 30 µM (inactive) | – | > 30 µM (inactive) | – | – | > 30 µM (inactive) | – | > 30 µM (inactive) | – | CC(C)(O)CC(=O)NCCn1ccc2ncnc(Nc3ccc(Oc4cccc(C(F)(F)F)c4)c(Cl)c3)c21 [TAK-285] | –
10 | > 30 µM (inactive) | > 30 µM (inactive) | – | > 30 µM (inactive) | – | > 30 µM (inactive) | > 30 µM (inactive) | – | – | > 30 µM (inactive) | Cn1c(=O)c(F)c(Nc2ccc(I)cc2F)c2c(=O)n(C[C@@H](O)CO)cnc21 [TAK-733] | –
11 | – | > 30 µM (inactive) | > 30 µM (inactive) | > 30 µM (inactive) | – | > 30 µM (inactive) | > 30 µM (inactive) | – | – | > 30 µM (inactive) | CNC(=O)c1cc(COc2nnc(Nc3ccc(Cl)cc3)c3ccoc23)ccn1 [TELATINIB] | –
12 | > 30 µM (inactive) | > 30 µM (inactive) | > 30 µM (inactive) | – | – | 1.47 µM (active) | 1.03 µM (active) | > 30 µM (inactive) | > 30 µM (inactive) | > 30 µM (inactive) | Cc1cc(-c2cc(OC(=O)c3ccccc3)ccc2Cl)cc2nnc(Nc3ccc(OCCN4CCCC4)cc3)nc12 [TG100-801] | –
13 | > 30 µM (inactive) | > 30 µM (inactive) | – | – | – | > 30 µM (inactive) | > 30 µM (inactive) | – | > 30 µM (inactive) | > 30 µM (inactive) | C[C@@H]1COC(Nc2ccc3ncnc(Nc4ccc(OCc5nccs5)c(Cl)c4)c3c2)=N1 [VARLITINIB] | –
14 | > 30 µM (inactive) | – | – | > 30 µM (inactive) | > 30 µM (inactive) | > 30 µM (inactive) | > 30 µM (inactive) | > 30 µM (inactive) | > 30 µM (inactive) | – | NC(=O)c1ccc(N(C(N)=O)c2c(F)cccc2F)nc1-c1ccc(F)cc1F [VX-702] | –
15 | > 30 µM (inactive) | > 30 µM (inactive) | > 30 µM (inactive) | > 30 µM (inactive) | > 30 µM (inactive) | > 30 µM (inactive) | 21.9 µM (active) | – | > 30 µM (inactive) | > 30 µM (inactive) | COc1cc2ncnc(Nc3ccc(O)cc3)c2cc1OC [WHI-P131] | –

Row | SMILES | Kd [1] | Kd [2] | Kd [3] | Kd [4] | Kd [5] | Kd [6] | Kd [7] | Kd [9] | Kd [10] | Kd [11] | Kd [8]
16 | NC[C@@](O)(c1ccc(Cl)cc1)c1ccc(-c2cn[nH]c2)cc1 [AT-13148] | – | > 30 µM (inactive) | – | > 30 µM (inactive) | – | > 30 µM (inactive) | > 30 µM (inactive) | – | – | – | > 30 µM (inactive)
17 | CC1(COc2ccc3c(c2)ncn3-c2ccc3cccc(N4CCC(N)CC4)c3n2)COC1 [CRENOLANIB] | > 30 µM (inactive) | > 30 µM (inactive) | > 30 µM (inactive) | > 30 µM (inactive) | > 30 µM (inactive) | – | 0.81 µM (active) | > 30 µM (inactive) | > 30 µM (inactive) | – | –
18 | O=S(=O)(c1cccc2cnccc12)N1CCCNCC1 [FASUDIL] | – | – | – | > 30 µM (inactive) | – | – | – | – | – | – | > 30 µM (inactive)
19 | Cc1c(Cn2c(C)nc3c(C(=O)O)cc(N4CCOCC4)cc32)cccc1C(F)(F)F [GSK-2636771] | > 30 µM (inactive) | > 30 µM (inactive) | > 30 µM (inactive) | – | – | > 30 µM (inactive) | > 30 µM (inactive) | > 30 µM (inactive) | – | – | –
20 | C[C@]1(O)C[C@@H](c2nc(-c3ccc4ccc(-c5ccccc5)nc4c3)c3c(N)nccn32)C1 [LINSITINIB] | > 30 µM (inactive) | – | > 30 µM (inactive) | – | – | – | – | – | – | – | –
21 | CN(c1ncccc1CNc1nc(Nc2ccc3c(c2)CC(=O)N3)ncc1C(F)(F)F)S(C)(=O)=O [PF-00562271] | – | – | > 30 µM (inactive) | > 30 µM (inactive) | – | – | – | – | > 30 µM (inactive) | – | –
22 | CN1CCN(c2nc(C3=C(c4c[nH]c5ccccc45)C(=O)NC3=O)c3ccccc3n2)CC1 [SOTRASTAURIN] | – | > 30 µM (inactive) | > 30 µM (inactive) | – | – | > 30 µM (inactive) | > 30 µM (inactive) | – | > 30 µM (inactive) | > 30 µM (inactive) | –

— ChEMBL document CHEMBL3991601, “The target landscape of clinical kinase drugs” (Science, 2017)
